Results reported in PubChem BioAssay AID588449 (Broad Institute, 2011).
Calls of active or inactive are those of the source.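 The calls were made as follows: active = inhibitors whose fitted AC50 is no more than ten times their highest valid tested dose; inconclusive = flat fit with 30 to 70% inhibition, or poor fit; inactive = the rest.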

Molecular target: Dual specificity tyrosine-phosphorylation-regulated kinase 1A (Rattus norvegicus) (UniProt Q63470)
Test: inhibition of rat Dyrk1A phosphotransfer – biochemical, cherry-pick, plate reader, 2124-03, dose response (AID 588449)
Details: recombinant Dyrk1A, ADP-Glo luminescence, NFATc1 peptide

AC50	Compound
19.8 nM	Clc1ccc(CNc2nccc(-c3ccc4c(c3)OCCO4)n2)cc1Cl
20.8 nM	Cc1nc(CN(C)c2ncnc3ccc(-c4ccc5c(c4)OCO5)cc23)cs1
217 nM	c1cncc(CNc2nccc(-c3ccc4cn[nH]c4c3)n2)c1
74.8 nM	c1coc(CCNc2ncnc3ccc(-c4ccc5c(c4)OCO5)cc23)c1
36.5 nM	CCCNc1ncnc2ccc(-c3ccc4c(c3)OCO4)cc12
21.1 nM	Cc1noc(CN(C)c2ncnc3ccc(-c4ccc5c(c4)OCO5)cc23)n1
83.2 nM	Fc1c(-c2ccc3ncnc(NCc4cccs4)c3c2)ccc2c1OCO2
1060 nM	Clc1cc(Cl)cc(CNc2ncncc2-c2ccc3c(c2)OCO3)c1
9670 nM	Clc1ccc(CNc2ncncc2-c2ccc3c(c2)OCO3)cc1
6.72 nM	c1nc(NCC2CCCOC2)c2cc(-c3ccc4c(c3)OCO4)ccc2n1 (stereo not given)
60.9 nM	Cc1ccsc1CN(C)c1ncnc2ccc(-c3ccoc3)cc12
84.3 nM	Clc1ccc(CNc2nccc(-c3ccc4c(c3)OCO4)n2)cc1Cl
2850 nM	O=[N+]([O-])c1cc(Nc2nccc(-c3ccc4c(c3)OCO4)n2)cc(C(F)(F)F)c1
340 nM	Clc1cc(Cl)cc(CNc2cc(-c3ccc4c(c3)OCO4)ncn2)c1
< 5.6 nM	FC(F)(F)c1cccc(Nc2nccc(-c3ccc4c(c3)OCO4)n2)c1
14.6 nM	c1nc(NCC2CCCC2)c2cc(-c3ccc4c(c3)OCO4)ccc2n1
2560 nM	Cc1ccc(CNc2ncnc3ccc(-c4ccoc4C)cc23)o1
18 nM	CCN(Cc1cccs1)c1ncnc2ccc(-c3ccc4c(c3)OCO4)cc12
905 nM	Cc1ccsc1CN(C)c1ncnc2ccc(-c3ccc(CO)o3)cc12
< 5.6 nM	c1nc(NCC2CCCO2)c2cc(-c3ccc4c(c3)OCO4)ccc2n1 (stereo not given)
109 nM	Cc1c(-c2ccnc(NCc3ccc(Cl)cc3)n2)sc(=O)n1C
19.1 nM	Clc1ccc(CNc2ccnc(-c3ccc4[nH]ncc4c3)n2)cc1Cl
> 12000 nM (inactive)	CS(=O)(=O)CCNCc1ccc(-c2ccc3ncnc(Nc4ccc(OCc5cccc(F)c5)c(Cl)c4)c3c2)o1
3540 nM	c1cncc(CNc2ccnc(-c3ccc4cn[nH]c4c3)n2)c1
< 5.6 nM	c1cc(-c2ccc3c(c2)OCO3)nc(Nc2ccc3c(c2)OCO3)n1
8.38 nM	Brc1cc(Br)cc(CNc2nccc(-c3ccc4c(c3)OCO4)n2)c1

AC50	Compound
1970 nM	Cc1csc(CN(C)c2ncnc3ccc(-c4ccc5c(c4)OCO5)cc23)n1
168 nM	Cc1nc(CNc2ncnc3ccc(-c4ccc5c(c4)OCO5)cc23)cs1
7.9 nM	Cc1ccsc1CNc1ncnc2ccc(-c3ccc4c(c3)OCO4)cc12
3160 nM	Clc1ccccc1-c1ccc2ncnc(NCc3ccc4c(c3)OCO4)c2c1
114 nM	Clc1ccc(CNc2nccc(-c3ccc4[nH]ncc4c3)n2)cc1Cl
711 nM	c1cncc(CNc2ccnc(-c3ccc4[nH]ncc4c3)n2)c1
48 nM	c1cncc(CNc2nccc(-c3ccc4c(c3)OCO4)n2)c1
< 5.6 nM	CN(Cc1nccs1)c1ncnc2ccc(-c3ccc4c(c3)OCO4)cc12
11300 nM	Clc1ccc(CNc2cc(-c3ccc4c(c3)OCO4)ncn2)cc1
< 5.6 nM	c1csc(CCNc2ncnc3ccc(-c4ccc5c(c4)OCO5)cc23)c1
907 nM	Cc1nc(CNc2ncnc3ccc(-c4ccoc4)cc23)cs1
1970 nM	c1cncc(CNc2cc(-c3ccc4c(c3)OCO4)ncn2)c1
5460 nM	CN(C)c1ccc(-c2nccc(NCc3cccs3)n2)cc1
121 nM	Cc1occc1CNc1ncnc2ccc(-c3ccc4c(c3)OCO4)cc12
49.2 nM	CN(Cc1cccs1)c1ncnc2ccc(-c3ccc4c(c3)OCO4)cc12
486 nM	CCOC(=O)c1ccc(-c2ccc3ncnc(N(C)Cc4sccc4C)c3c2)o1
410 nM	Cc1c(-c2ccnc(NCc3cccnc3)n2)sc(=O)n1C
326 nM	c1csc(CNc2ncnc3ccc(-c4ccoc4)cc23)c1
228 nM	Clc1ccc(Nc2nccc(-c3ccc4c(c3)OCO4)n2)cc1
209 nM	Brc1ccc(CNc2nccc(-c3ccc4c(c3)OCO4)n2)cc1Br
10.4 nM	Cc1ccc(CN(C)c2ncnc3ccc(-c4ccc5c(c4)OCO5)cc23)o1
62.5 nM	Cc1ccc(CNc2ncnc3ccc(-c4ccc5c(c4)OCO5)cc23)o1
123 nM	c1cncc(CNc2nccc(-c3ccc4[nH]ncc4c3)n2)c1
< 5.6 nM	COc1ccc(-c2nccc(NCc3ccc(C)cc3)n2)cc1
21.6 nM	Clc1ccc(CNc2nccc(-c3ccc4cn[nH]c4c3)n2)cc1Cl

Same assay, conditions: recombinant Dyrk1A, ADP-Glo luminescence, NFATc1 peptide; at 12 µM (top of the series)

activity change, negative = inhibition	Compound
inactive	Cn1ccc2cc(-c3ccc4ncnc(NCc5cccc(F)c5)c4c3)ccc21
inactive	Cc1cccc(CNc2ncnc3ccc(-c4cccc(Cl)c4)cc23)c1
inactive	Cn1ccc2cc(-c3ccc4ncnc(NCc5ccc6c(c5)OCO6)c4c3)ccc21
inactive	c1csc(CNc2ncnc3ccc(-c4ccc5c(c4)OCO5)cc23)n1
